The results in this text go back to patent US20240158418A1 (C4 Therapeutics, Inc., priority 2021, published 2024).

Each structure is given as a SMILES string.

T1 sequence (P00533 25-1210 T790M/L858R): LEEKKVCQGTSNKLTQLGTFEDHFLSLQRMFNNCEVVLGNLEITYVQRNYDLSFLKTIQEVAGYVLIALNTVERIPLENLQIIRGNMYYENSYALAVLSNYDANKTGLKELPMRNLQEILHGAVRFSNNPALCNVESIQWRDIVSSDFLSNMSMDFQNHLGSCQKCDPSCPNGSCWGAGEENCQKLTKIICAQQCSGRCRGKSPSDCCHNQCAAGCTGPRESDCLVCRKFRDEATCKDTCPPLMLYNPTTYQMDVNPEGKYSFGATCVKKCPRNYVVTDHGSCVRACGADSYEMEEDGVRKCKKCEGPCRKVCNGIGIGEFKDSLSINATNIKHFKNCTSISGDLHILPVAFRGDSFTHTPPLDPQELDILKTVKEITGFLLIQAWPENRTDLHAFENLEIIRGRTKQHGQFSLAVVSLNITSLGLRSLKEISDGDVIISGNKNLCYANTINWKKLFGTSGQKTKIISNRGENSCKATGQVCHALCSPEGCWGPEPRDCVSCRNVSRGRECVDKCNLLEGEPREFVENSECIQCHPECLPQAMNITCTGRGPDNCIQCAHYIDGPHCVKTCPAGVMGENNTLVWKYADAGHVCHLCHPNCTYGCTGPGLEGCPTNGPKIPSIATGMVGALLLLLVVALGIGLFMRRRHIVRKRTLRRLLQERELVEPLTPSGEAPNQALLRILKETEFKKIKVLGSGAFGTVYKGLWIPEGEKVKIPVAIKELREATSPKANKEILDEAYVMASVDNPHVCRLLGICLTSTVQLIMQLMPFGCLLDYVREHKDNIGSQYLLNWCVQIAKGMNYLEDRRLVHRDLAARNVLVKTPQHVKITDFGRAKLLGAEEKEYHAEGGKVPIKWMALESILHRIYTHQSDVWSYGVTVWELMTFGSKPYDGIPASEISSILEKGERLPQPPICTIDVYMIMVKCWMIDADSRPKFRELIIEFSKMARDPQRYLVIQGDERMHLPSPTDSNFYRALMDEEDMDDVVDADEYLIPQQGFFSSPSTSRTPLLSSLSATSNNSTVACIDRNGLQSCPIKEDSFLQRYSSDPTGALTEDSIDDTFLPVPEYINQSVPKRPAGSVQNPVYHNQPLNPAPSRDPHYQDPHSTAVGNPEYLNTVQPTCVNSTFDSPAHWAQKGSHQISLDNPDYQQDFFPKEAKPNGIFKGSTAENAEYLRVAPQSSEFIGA

The first assay concerns the target T1, EGFR L858R-T790M (Homo sapiens, UniProt P00533, L858R/T790M).
T1 construct: NCI-H1975 (harboring EGFR heterozygous L858R-T790M mutations); host or cells: NCI-H1975
As to the kind of experiment: EGFR degradation, Total EGFR (L858R-specific) HTRF, NCI-H1975. In kind it is cell-based. The note with it: Table 9A; NCI-H1975 cells, 6 hours, Total EGFR HTRF; read-out: H1975 EGFR DC50. The method in brief: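 FRET signal from HTRF kits measured phospho-EGFR at pY1068 or total EGFR after 6 h treatment at 37 °C. Compounds ran as 11-point half-log dilutions from 10 μM in duplicate, in cells in phenol red-free RPMI with 10% FBS. Concentrations giving 50% inhibition or degradation were reported as IC50 or DC50.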
A word on the DC50: it is the midpoint of the concentration-degradation curve. Turning to `O=C1CC[C@@H](Nc2ccc(C3CCN(CC(=O)N4CCC(c5ccc(-c6cc(F)c7c(c6)C(=O)N(C(C(=O)Nc6nccs6)c6ncn8c6CCC8)C7)cc5)CC4)CC3)cc2)C(=O)N1` (stereo partly drawn) [Compound 23, 2-(6,7-dihydro-5H-pyrrolo[1,2-c]imidazol-1-yl)-2-(6-(4-(1-(2-(4-(4-(((R)-2,6-dioxopiperidin-3-yl)amino)phenyl)piperidin-1-yl)acetyl)piperidin-4-yl)phenyl)-4-fluoro-1-oxoisoindolin-2-yl)-N-(thiazol-2-yl)acetamide], the DC50 was below 50 nM.

As to `O=C1CCC(Nc2ccc(C3CCN(CC(=O)N4CCN(c5ccc(-c6cc(Cl)c7cn(C(C(=O)Nc8nccs8)c8ncn9c8CCC9)nc7c6Cl)cc5)CC4)CC3)cc2)C(=O)N1` (racemic) [Compound 61, (2RS)-2-[4,7-Dichloro-6-[4-[4-[2-[4-[4-[[(3RS)-2,6-dioxo-3-piperidyl]amino]phenyl]-1-piperidyl]acetyl]piperazin-1-yl]phenyl]indazol-2-yl]-2-(6,7-dihydro-5H-pyrrolo[1,2-c]imidazol-1-yl)-N-thiazol-2-yl-acetamide], the DC50 lay within 50 to 150 nM.

Staying with this assay, now noted: Table 9B; NCI-H1975 cells, 6 hours, Total EGFR HTRF; read-out: H1975 EGFR DC50.
For `O=C1CCC(Nc2cc(F)c(N3CCC(O)(CC(=O)N4CC5(C4)CN(c4ccc(-c6cc(F)c7c(c6)C(=O)N(C(C(=O)Nc6nccs6)c6ncn8c6CCC8)C7)cc4)C5)CC3)cc2F)C(=O)N1` (stereo not drawn) [Compound 135, 2-(6,7-dihydro-5H-pyrrolo[1,2-c]imidazol-1-yl)-2-[6-[4-[2-[2-[1-[4-[(2,6-dioxo-3-piperidyl)amino]-2,5-difluoro-phenyl]-4-hydroxy-4-piperidyl]acetyl]-2,6-diazaspiro[3.3]heptan-6-yl]phenyl]-4-fluoro-1-oxo-isoindolin-2-yl]-N-thiazol-2-yl-acetamide], the DC50 was below 50 nM.

With `O=C1CC[C@H](Nc2ccc(N3CCC(O)(CC(=O)N4CC5(C4)CN(c4ccc(-c6ccc7cn(C(C(=O)Nc8nccs8)c8ncn9c8CCC9)nc7c6F)cc4)C5)CC3)c(F)c2)C(=O)N1` (stereo partly drawn) [Compound 78, 2-(6,7-dihydro-5H-pyrrolo[1,2-c]imidazol-1-yl)-2-(6-(4-(6-(2-(1-(4-(((S)-2,6-dioxopiperidin-3-yl)amino)-2-fluorophenyl)-4-hydroxypiperidin-4-yl)acetyl)-2,6-diazaspiro[3.3]heptan-2-yl)phenyl)-7-fluoro-2H-indazol-2-yl)-N-(thiazol-2-yl)acetamide], the half-maximal degradation concentration (DC50) was below 50 nM.

On to `O=C1CC[C@@H](Nc2ccc(N3CCC(O)(CC(=O)N4CC5(C4)CN(c4ccc(-c6cc(F)c7c(c6)C(=O)N(C(C(=O)Nc6nccs6)c6ncn8c6C[C@@H](F)C8)C7)cc4)C5)CC3)c(F)c2)C(=O)N1` (stereo partly drawn) [Compound 132, 2-[6-[4-[2-[2-[1-[4-[[(3R)-2,6-dioxo-3-piperidyl]amino]-2-fluoro-phenyl]-4-hydroxy-4-piperidyl]acetyl]-2,6-diazaspiro[3.3]heptan-6-yl]phenyl]-4-fluoro-1-oxo-isoindolin-2-yl]-2-[(6R)-6-fluoro-6,7-dihydro-5H-pyrrolo[1,2-c]imidazol-1-yl]-N-thiazol-2-yl-acetamide], for which the DC50 is below 50 nM.

As for `O=C1CCC(Nc2cc(F)c(N3CCC(O)(CC(=O)N4CCC5(CC4)CN(c4ccc(-c6cc(F)c7c(c6)C(=O)N(C(C(=O)Nc6nccs6)c6ncn8c6CCC8)C7)cc4)C5)CC3)c(F)c2)C(=O)N1` (single isomer, unassigned; isomer 1) [Compound 137, 2-(6,7-dihydro-5H-pyrrolo[1,2-c]imidazol-1-yl)-2-[6-[4-[7-[2-[1-[4-[2,6-dioxo-3-piperidyl]amino]-2,6-difluoro-phenyl]-4-hydroxy-4-piperidyl]acetyl]-2,7-diazaspiro[3.5]nonan-2-yl]phenyl]-4-fluoro-1-oxo-isoindolin-2-yl]-N-thiazol-2-yl-acetamide, isomer 1], the DC50 was 50 to 150 nM.

With `O=C1CCC(Nc2ccc(-c3ccc(CC(=O)N4CCC(Oc5ccc(-c6cc(F)c7c(c6)C(=O)N(C(C(=O)Nc6nccs6)c6ncn8c6CCC8)C7)cc5)CC4)cc3)cc2)C(=O)N1` (stereo not drawn) [Compound 81, 2-(6,7-dihydro-5H-pyrrolo[1,2-c]imidazol-1-yl)-2-(6-(4-((1-(2-(4′-((2,6-dioxopiperidin-3-yl)amino)-[1,1′-biphenyl]-4-yl)acetyl)piperidin-4-yl)oxy)phenyl)-4-fluoro-1-oxoisoindolin-2-yl)-N-(thiazol-2-yl)acetamide], the 50% degradation concentration (DC50) was 50 to 150 nM.

Regarding `Cn1nc(N2CCC(=O)NC2=O)c2ccc(C3CCN(CC(=O)N4CCN(c5ccc(-c6cc(F)c7cn(C(C(=O)Nc8nccs8)c8ncn9c8CCC9)nc7c6)cn5)CC4)CC3(F)F)cc21` (stereo not drawn) [Compound 72, 2-(6,7-dihydro-5H-pyrrolo[1,2-c]imidazol-1-yl)-2-(6-(6-(4-(2-(4-(3-(2,4-dioxotetrahydropyrimidin-1(2H)-yl)-1-methyl-1H-indazol-6-yl)-3,3-difluoropiperidin-1-yl)acetyl)piperazin-1-yl)pyridin-3-yl)-4-fluoro-2H-indazol-2-yl)-N-(thiazol-2-yl)acetamide], the half-maximal degradation concentration (DC50) is below 50 nM.

On to `Cn1nc(N2CCC(=O)NC2=O)c2ccc(C3CCN(C(=O)C4CC5(C4)CN(c4ccc(-c6cc(F)c7c(c6)C(=O)N(C(C(=O)Nc6nccs6)c6ncn8c6CCC8)C7)cc4)C5)CC3(F)F)cc21` (stereo not drawn) [Compound 155, 2-(6,7-dihydro-5H-pyrrolo[1,2-c]imidazol-1-yl)-2-[6-[4-[6-[4-[3-(2,4-dioxohexahydropyrimidin-1-yl)-1-methyl-indazol-6-yl]-3,3-difluoro-piperidine-1-carbonyl]-2-azaspiro[3.3]heptan-2-yl]phenyl]-4-fluoro-1-oxo-isoindolin-2-yl]-N-thiazol-2-yl-acetamide], for which the DC50 is below 50 nM.

Consider `O=C1CCC(Nc2cc(F)c(N3CCC(O)(CC(=O)N4CC5(C4)CN(c4ccc(-c6cc(F)c7c(c6)C(=O)N(C(C(=O)Nc6nccs6)c6ncn8c6CCC8)C7)cc4)C5)CC3)c(Cl)c2)C(=O)N1` (single isomer, unassigned; isomer 1) [Compound 145, 2-[6-[4-[2-[2-[1-[2-chloro-4-[[2,6-dioxo-3-piperidyl]amino]-6-fluoro-phenyl]-4-hydroxy-4-piperidyl]acetyl]-2,6-diazaspiro[3.3]heptan-6-yl]phenyl]-4-fluoro-1-oxo-isoindolin-2-yl]-2-(6,7-dihydro-5H-pyrrolo[1,2-c]imidazol-1-yl)-N-thiazol-2-yl-acetamide, isomer 1], for which the DC50 was 50 to 150 nM.

Regarding `O=C1CCC(Nc2ccc(C3CCN(C(=O)CC4CCN(c5ccc(-c6cc(F)c7c(c6)C(=O)N(C(C(=O)Nc6nccs6)c6ncn8c6CCC8)C7)cc5)CC4)CC3)c(F)c2)C(=O)N1` (stereo not drawn) [Compound 86, 2-(6,7-dihydro-5H-pyrrolo[1,2-c]imidazol-1-yl)-2-[6-[4-[4-[2-[4-[4-[(2,6-dioxo-3-piperidyl)amino]-2-fluoro-phenyl]-1-piperidyl]-2-oxo-ethyl]-1-piperidyl]phenyl]-4-fluoro-1-oxo-isoindolin-2-yl]-N-thiazol-2-yl-acetamide], the DC50 lay within 50 to 150 nM.

Turning to `Cn1nc(N2CCC(=O)NC2=O)c2ccc(C3CCN(CC(=O)N4CC5(C4)CN(c4ccc(-c6cc(F)c7c(c6)C(=O)N(C(C(=O)Nc6ccccn6)c6ncn8c6CCC8)C7)cc4)C5)C4(CC4)C3)cc21` (stereo not drawn) [Compound 153, 2-(6,7-dihydro-5H-pyrrolo[1,2-c]imidazol-1-yl)-2-[6-[4-[2-[2-[7-[3-(2,4-dioxohexahydropyrimidin-1-yl)-1-methyl-indazol-6-yl]-4-azaspiro[2.5]octan-4-yl]acetyl]-2,6-diazaspiro[3.3]heptan-6-yl]phenyl]-4-fluoro-1-oxo-isoindolin-2-yl]-N-(2-pyridyl)acetamide], the DC50 was 50 to 150 nM.

As for `O=C1CCC(Nc2ccc(N3CCC(O)(CC(=O)N4CC5(CCN(c6ccc(-c7cc(F)c8c(c7)C(=O)N(C(C(=O)Nc7nccs7)c7ncn9c7CCC9)C8)cc6)CC5)C4)CC3)c(F)c2)C(=O)N1` (stereo not drawn) [Compound 107, 2-(6,7-dihydro-5H-pyrrolo[1,2-c]imidazol-1-yl)-2-(6-(4-(2-(2-(1-(4-((2,6-dioxopiperidin-3-yl)amino)-2-fluorophenyl)-4-hydroxypiperidin-4-yl)acetyl)-2,7-diazaspiro[3.5]nonan-7-yl)phenyl)-4-fluoro-1-oxoisoindolin-2-yl)-N-(thiazol-2-yl)acetamide], the DC50 was below 50 nM.

Take `Cn1nc(N2CCC(=O)NC2=O)c2ccc(C3CCN(CC(=O)N4CC5(C4)CN(c4ccc(-c6cc(F)c7c(c6)C(=O)N(C(C(=O)Nc6nccs6)c6ncn8c6CCC8)C7)cc4)C5)CC3F)cc21` (single isomer, unassigned; isomer 2) [Compound 125, 2-(6,7-dihydro-5H-pyrrolo[1,2-c]imidazol-1-yl)-2-[6-[4-[2-[2-[4-[3-(2,4-dioxohexahydropyrimidin-1-yl)-1-methyl-indazol-6-yl]-3-fluoro-1-piperidyl]acetyl]-2,6-diazaspiro[3.3]heptan-6-yl]phenyl]-4-fluoro-1-oxo-isoindolin-2-yl]-N-thiazol-2-yl-acetamide, isomer 2]: the DC50 was below 50 nM.

In the case of `Cn1nc(N2CCC(=O)NC2=O)c2ccc([C@@H]3CCN(C(=O)CN4CCC5(CC4)CN(c4ccc(-c6cc(F)c7c(c6)C(=O)N(C(C(=O)Nc6nccs6)c6ncn8c6CCC8)C7)cc4)C5)CC3(F)F)cc21` (stereo partly drawn) [Compound 141, 2-(6,7-dihydro-5H-pyrrolo[1,2-c]imidazol-1-yl)-2-[6-[4-[7-[2-[(4S)-4-[3-(2,4-dioxohexahydropyrimidin-1-yl)-1-methyl-indazol-6-yl]-3,3-difluoro-1-piperidyl]-2-oxo-ethyl]-2,7-diazaspiro[3.5]nonan-2-yl]phenyl]-4-fluoro-1-oxo-isoindolin-2-yl]-N-thiazol-2-yl-acetamide], the DC50 lay within 50 to 150 nM.
